Laboratory results as given in patent US20250120916A1, “NANOTECHNOLOGY FOR CHEMOTHERA0PY DRUG CAPTURE” (The Regents of the University of California, priority 2021, published 2025).
Counter-ions that a name gives are not always drawn. Like-named read-outs stand apart in the source and are kept apart here. Blank lines part the entries; values can stand above or below the molecule they belong to.

Columns and labels:
[1] = system: fibroblast; details: literature (75); cited from earlier work
[2] = Hydrodynamic size (DLS) and ζ-potential measurements; type: physicochemical
Description: Hydrodynamic size and ζ-potential measurements: A Zetasizer Nano ZS from Malvern Panalytical Ltd was used to conduct dynamic light scattering (DLS) and electrokinetic measurements in folded capillary cells (DTS1070). Samples were prepared with an ENCC concentration of 0.1 mg mL−1 in 1 mg mL−1 of NaCl solution A final DOX concentration of 0.03 mg mL−1 was used to have an ˜1:10 molar ratio of DOX to the carboxylate of ENCC For ζ-potential measurements on DOX, the concentration was lowered to 0.003 mg mL−1. At least three measurements were taken for each DLS experiment, with 11 runs per measurement. For the ζ-potential tests, the number of measurements was at least three, with up to 100 runs per measurement.

[3] = Biodetoxification test, NIH/3T3 fibroblasts; details: mouse, NIH/3T3 fibroblasts
Description: (§1) Biodetoxification tests: To determine the biodetoxification effect of ENCC, 5×10^3 NIH/3T3 cells or HUVECs were seeded in 96-well plates with 200 μL of DMEM supplemented with FBS (10% v/v) and 1% v/v of Pen-Strep or EGM bullet kit HUVEC media, respectively. The cells were allowed to attach to the bottom of wells for 1 h, the media were aspirated, and the cells were rinsed with 200 μL of DPBS, followed by the addition of 200 μL of corresponding media including DOX (final concentration=400 μg mL−1), which was previously detoxified by adding ENCC (final concentration=1 mg mL−1), centrifuged at 1000 rpm for 3 min, and separated from the precipitate. The control experiments were conducted in corresponding DOX-free cell culture media or DOX-containing media without ENCC treatment. Each group consisted of 5 wells. After 8 h, the media was aspirated, the cells were rinsed twice with 200 μL of DPBS, followed by the addition of 100 μL of PrestoBlue™ reagent to each well. The cells were incubated for 1 h, and then the PrestoBlue™ absorbance was recorded using the microplate reader. Immediately afterwards, the cells were again rinsed twice with 200 μL, of DPBS, followed by the addition of 150 μL, of the Live/Dead reagents. The cells were incubated for 90 min and imaged using the fluorescence microscope. The fluorescence images were analyzed using the Imagej Software.(62)

[4] = system: NIH/3T3 fibroblasts; experiment: Biodetoxification test, NIH/3T3 fibroblasts; details: NIH/3T3, untreated DOX 400 μg mL−1 media, 8 h
Description: as §1

[5] = Biodetoxification test, HUVECs; details: human
Description: as §1

[6] = system: HUVECs; experiment: Biodetoxification test, HUVECs; details: untreated DOX 400 μg mL−1 media, 8 h
Description: as §1

[7] = system: red blood cells (RBCs) in human whole blood; experiment: Hemolysis assessment (ASTM E2524-08); type: cell-based
Description: Hemolysis assessment: The hemolytic activity of ENCC was measured via exposing human whole blood, withdrawn from 3 healthy volunteer donors by another lab, to varying concentrations of ENCC and measuring the concentration of released hemoglobin in plasma according to the American Society for Testing and Materials (ASTM) E2524-08 (2013) standard analysis of hemolytic activity of nanoparticles.(61) A colorimetric technique was used to measure the oxidation of […] (Drabkin's reagent) at an absorbance of 540 nm A calibration curve was obtained using […] of pure human hemoglobin to quantify the concentration of released hemoglobin in heparinized human whole blood exposed to ENCC The blood samples were diluted in DPBS to have 10±2 mg of hemoglobin per mL. ENCC was added to a microcentrifuge tube, followed by the addition of DPBS (800 μL) and the diluted blood (100 μL). After gently mixing the samples, they were incubated for 3 h±15 min at 37° C. and centrifuged for 15 min at 14000 rpm and ambient temperature. […] A microplate reader (540 nm, BioTek UV/vis Synnergy 2, USA) was then used to measure the relative absorbance of each well against the reagent blank to correct the background (blood-free samples) absorbance. The hemolysis percentage was measured based on the hemoglobin concentration in the samples divided by the total blood hemoglobin (˜10 mg mL−1). […]

[8] = DOX:COO− ~0.1, ENCC 100 μg mL−1

- hydrodynamic size after ENCC addition [2, 8]: ~350 nm
- ζ-potential after ENCC addition [2, 8]: ~−32 mV
- hydrodynamic size of DOX aggregates ([2]; before ENCC addition): ~66 nm
- ζ-potential of DOX aggregates ([2]; before ENCC addition): ~+24 mV
Molecule: COc1cccc2c1C(=O)c1c(O)c3c(c(O)c1C2=O)C[C@@](O)(C(=O)CO)C[C@@H]3O[C@H]1C[C@H](N)[C@H](O)[C@H](C)O1 [DOX, Doxorubicin hydrochloride]
- DOX concentration that induces fibroblast cellular toxicity [1]: above 5×10^−5 M
- viability at 8 h, 400 μg mL−1 [3]: < 10%
- decrease in metabolic activity (PrestoBlue) [4]: more than 2000%
- viability at 8 h, 400 μg mL−1 [5]: ~35%
- decrease in metabolic activity (PrestoBlue) [6]: more than 2000%

Molecule: Triton X-100
- hemolysis percentage (controls) ([7]; Triton X-100 1% v/v positive control, PEG 4.4% v/v negative control): > 95%

Molecule: polyethylene glycol [PEG]
- hemolysis percentage (controls) [7]: does not induce significant hemolysis
